Measurements from publication PMC5362455, “Molecularly targeted co-delivery of a histone deacetylase inhibitor and paclitaxel by lipid-protein hybrid nanoparticles for synergistic combinational chemotherapy” (Oncotarget, 2017).

Experiments:
[1] = tested on: HepG2 xenograft tumor masses; assay: Histomorphometric and immunohistochemical analysis of tumor masses; assay type: in vivo, BALB/c nude mice; conditions: for Tumor cell volumes: H&E, six histological fields; for Immunolabeled cell percentages: CD31 (PECAM-1) / Immunolabeled cell percentages: Caspase-3 / Immunolabeled cell percentages: Ki-67 / Immunolabeled cell percentages: PARP: tumor mass; for Caspase-3-immunolabeled cells: tumor of treated mice
Description: Xenografted tumor masses were cut and fixed in 10% neutral buffered formalin, embedded in paraffin, serially sectioned (3–4 μm), and stained with H&E prior to histopathological examinations under a light microscope (Nikon, Tokyo, Japan). The tumor cell volumes and intact tumor cell-occupied regions (%/mm^2 of tumor mass) were calculated using a computer-based automated image analyzer (iSolution FL ver 9.1, IMT i-solution Inc., Quebec, Canada).
The apoptotic markers, caspase-3, PARP, CD31, and Ki67 were investigated immunohistochemically using purified primary antibodies and biotinylated secondary antibodies, with avidin-biotin-peroxidase complex (ABC) and a peroxidase substrate kit (Vector Labs, Burlingame, CA, USA). Briefly, endogenous peroxidase activity was blocked with methanol and 0.3% H2O2 for 30 min, and non-specific immunoglobulin binding was blocked with normal horse serum blocking solution in 10 mM citrate buffer (pH 6.0). Tissue sections were incubated with primary antisera overnight at 4°C in a humidity chamber, and then incubated with biotinylated universal secondary antibodies and ABC reagents for 1 h at room temperature. Finally, sections were reacted with the peroxidase substrate kit for 3 min at room temperature. Cells were counted as immunopositive if they had > 20% immunoreactivity to the apoptotic marker (caspase-3 or PARP). The percentage region occupied by caspase-3- and PARP-positive cells within the tumor mass (%/mm^2 of tumor mass) was measured by an automated image analyzer.

red blood cells (RBC) = assay: Hemolytic analysis; conditions: male, Sprague-Dawley, rat
Description: The experimental protocol was approved by
the Institutional Animal Ethical Committee, Yeungnam
Briefly, the rat femoral artery
was cannulated and whole blood samples were withdrawn.
centrifugation at 3500 rpm for 10 min. The degree of
Hemolytic analysis hemolysis was determined by measuring the absorbance
of the supernatant at 540 nm.
Hemolytic toxicity was determined in a male
Sprague-Dawley rat after treatment with different

[2] = tested on: HepG2 tumor-bearing xenograft mice; assay: In vivo antitumor study; design: species or system BALB/c nude mice; conditions: 5 mg/kg i.v., days 1, 4, 7, 10
Description: HepG2 cell-bearing xenograft mice models were developed by subcutaneously injecting 1 × 10^7 cells/100 μl into the rear flanks of 5-week-old male BALB/c nude mice (Orient Ltd. Osan, South Korea). After two weeks of initial implantation, animals were randomly divided into six groups (n = 6 per group). Respective formulations were injected at a dose of 100 μg/100 μL in 750 μg carrier by tail vein four times every 3 days. Tumors were measured twice weekly using a digital caliper and the tumor volume (V) was calculated as, V = ((width)^2 x length)/2. The animals were sacrificed after four weeks of treatment and the primary tumor was excised, weighed, and subjected to further analysis.

| SMILES | Tumor cell volumes [1] | Immunolabeled cell percentages: CD31 (PECAM-1) [1] | Immunolabeled cell percentages: Caspase-3 [1] | Immunolabeled cell percentages: Ki-67 [1] | Immunolabeled cell percentages: PARP [1] | Caspase-3-immunolabeled cells [1] [%] | hemolysis at 30 min, 100 µg/mL (red blood cells (RBC)) [%] | Tumor growth (in words) [2] | hemolysis at 30 min, 100 µg/mL (red blood cells (RBC); isolated red blood cells (RBC) suspension) [%] |
| --- | --- | --- | --- | --- | --- | --- | --- | --- | --- |
| CC(=O)O[C@H]1C(=O)[C@@]2(C)[C@H]([C@H](OC(=O)c3ccccc3)[C@]3(O)C[C@H](OC(=O)[C@H](O)[C@@H](NC(=O)c4ccccc4)c4ccccc4)C(C)=C1C3(C)C)[C@]1(OC(C)=O)CO[C@@H]1C[C@@H]2O [PTX, Paclitaxel] | 53.84 ± 3.18 %/mm2 of tumor mass | 30.54 ± 4.09 %/mm2 of tumor mass | 30.34 ± 5.00 %/mm2 of tumor mass | 44.90 ± 5.31 %/mm2 of tumor mass | 29.59 ± 3.04 %/mm2 of tumor mass | 30.34 | ~25 | slightly inhibited tumor growth | – |
| O=C(CCCCCCC(=O)Nc1ccccc1)NO [VOR, Vorinostat] | 60.51 ± 10.92 %/mm2 of tumor mass | 29.70 ± 2.52 %/mm2 of tumor mass | 26.31 ± 7.48 %/mm2 of tumor mass | 42.64 ± 4.65 %/mm2 of tumor mass | 27.64 ± 3.22 %/mm2 of tumor mass | 26.31 | – | slightly inhibited tumor growth | ~40 |
